pIC50: −log10 of the molar value.
Biological target: T1, Human Factor XIIa (Homo sapiens, UniProt P00748)
T1 construct: purchased Enzyme Research Laboratories
T1 sequence (P00748 373-615 limits assumed): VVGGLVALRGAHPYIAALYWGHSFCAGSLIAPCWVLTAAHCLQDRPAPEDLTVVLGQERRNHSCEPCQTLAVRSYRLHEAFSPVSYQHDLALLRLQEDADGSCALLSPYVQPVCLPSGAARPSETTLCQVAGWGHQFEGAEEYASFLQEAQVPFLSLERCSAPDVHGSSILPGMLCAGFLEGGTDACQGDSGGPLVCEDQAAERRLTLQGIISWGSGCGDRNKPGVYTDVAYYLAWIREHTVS
T1 sequence (P00748 20-372 partner limits assumed): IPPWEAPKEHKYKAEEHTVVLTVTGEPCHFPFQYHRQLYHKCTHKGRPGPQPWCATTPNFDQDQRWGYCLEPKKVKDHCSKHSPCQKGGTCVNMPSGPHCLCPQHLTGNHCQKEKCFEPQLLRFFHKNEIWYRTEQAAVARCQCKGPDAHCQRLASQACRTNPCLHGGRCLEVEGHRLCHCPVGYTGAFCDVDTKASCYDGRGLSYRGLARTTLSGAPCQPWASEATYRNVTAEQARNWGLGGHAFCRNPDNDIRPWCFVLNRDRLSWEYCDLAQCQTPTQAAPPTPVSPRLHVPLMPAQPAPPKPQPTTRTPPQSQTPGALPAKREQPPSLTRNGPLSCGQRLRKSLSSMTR
Assay: Determination of FXIIa inhibition (in vitro IC50 assay, fluorogenic substrate H-DPro-Phe-Arg-AFC)
Assay type: biochemical
Details: human Factor XIIa; fluorogenic substrate H-DPro-Phe-Arg-AFC at Km concentration; 5 min, 25 °C; class symbols H1/H2 for % inhibition at top concentration
Summary of the method: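 Human FXIIa incubated at 25 °C with compound and H-DPro-Phe-Arg-AFC at its Km concentration. Linear fluorescence increase monitored over 5 min, expressed as % of uninhibited activity; IC50 is concentration giving 50% inhibition.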

In the case of `Cc1cc(OCC23CN(C(=O)NC4(c5ccccc5)CC4)C(CNc4cccnc4F)(C2)C3)cc(=O)n1C` [Example 67, 4-(((1,6-dimethyl-2-oxo-1,2-dihydropyridin-4-yl)oxy)methyl)-1-(((2-fluoropyridin-3-yl)amino)methyl)-N-(1-phenylcyclopropyl)-2-azabicyclo[2.1.1]hexane-2-carboxamide], the “Human FXIIa inhibition (compounds that did not achieve 50% inhibition)” value was “H2 (>20% inhibition @ 100 μM)”.
In the case of `Cc1cc(OCC23CN(C(=O)NC4(c5ccccc5)CC4)C(CNc4ccccc4C#N)(C2)C3)cc(=O)n1C` [Example 68, 1-(((2-cyanophenyl)amino)methyl)-4-(((1,6-dimethyl-2-oxo-1,2-dihydropyridin-4-yl)oxy)methyl)-N-(1-phenylcyclopropyl)-2-azabicyclo[2.1.1]hexane-2-carboxamide], the “Human FXIIa inhibition (compounds that did not achieve 50% inhibition)” value was “H1 (>20% inhibition @ 40 μM)”.

Same assay, conditions: human Factor XIIa; fluorogenic substrate H-DPro-Phe-Arg-AFC at Km concentration; 5 min, 25 °C; class symbols; read-out: Human FXIIa IC50

`Cc1cc(OCC23CN(C(=O)NC4(c5ccccc5)CC4)C(CNc4cccc5c(N)nccc45)(C2)C3)cc(=O)n1C` [Example 57, 1-(((1-aminoisoquinolin-5-yl)amino)methyl)-4-(((1,6-dimethyl-2-oxo-1,2-dihydropyridin-4-yl)oxy)methyl)-N-(1-phenylcyclopropyl)-2-azabicyclo[2.1.1]hexane-2-carboxamide] and `Nc1nccc2c(NCC34CC(COc5cc6n(c(=O)c5)CCC6)(CN3C(=O)NC3(c5ccccc5)CC3)C4)cccc12` [Example 59, 1-(((1-Aminoisoquinolin-5-yl)amino)methyl)-4-(((5-oxo-1,2,3,5-tetrahydroindolizin-7-yl)oxy)methyl)-N-(1-phenylcyclopropyl)-2-azabicyclo[2.1.1]hexane-2-carboxamide] fall in the same range of pIC50: 8.00 to 9.00 for the first, 8.00 to 9.00 for the second.

First: Cc1cc(OCC23CN(C(=O)NC4(c5ccccc5)CC4)C(CNc4ccc(N)nc4)(C2)C3)cc(=O)n1C [Example 58, 1-(((6-aminopyridin-3-yl)amino)methyl)-4-(((1,6-dimethyl-2-oxo-1,2-dihydropyridin-4-yl)oxy)methyl)-N-(1-phenylcyclopropyl)-2-azabicyclo[2.1.1]hexane-2-carboxamide]
Second: Cc1cc(OCC23CN(C(=O)NC4(c5ccccc5)CC4)C(CNc4cccnc4O)(C2)C3)cc(=O)n1C [Example 71, 4-(((1,6-Dimethyl-2-oxo-1,2-dihydropyridin-4-yl)oxy)methyl)-1-(((2-hydroxypyridin-3-yl)amino)methyl)-N-(1-phenylcyclopropyl)-2-azabicyclo[2.1.1]hexane-2-carboxamide]
The pIC50 of the first is higher: 4.40 to 5.00 for the first, 4.00 to 4.40 for the second. The first is the more potent here.

`Cn1ccc(OCC23CN(C(=O)NC4C5CC6CC(C5)CC4C6)C(CNc4cccc5c(N)nccc45)(C2)C3)cc1=O` (stereo not shown) [Example 61, N-(adamantan-2-yl)-1-(((1-aminoisoquinolin-5-yl)amino)methyl)-4-(((1-methyl-2-oxo-1,2-dihydropyridin-4-yl)oxy)methyl)-2-azabicyclo[2.1.1]hexane-2-carboxamide] and `Cn1ccc(OCC23CN(C(=O)NC4CC5(CCC5)C4)C(CNc4cccc5c(N)nccc45)(C2)C3)cc1=O` [Example 75, 1-(((1-aminoisoquinolin-5-yl)amino)methyl)-4-(((1-methyl-2-oxo-1,2-dihydropyridin-4-yl)oxy)methyl)-N-(spiro[3.3]heptan-2-yl)-2-azabicyclo[2.1.1]hexane-2-carboxamide] fall in the same range of pIC50: 7.00 to 8.00 for the first, 7.00 to 8.00 for the second.

First: Cn1ccc(OCC23CN(C(=O)Nc4cc(F)cc5c4OCOC5)C(CNc4cccc5c(N)nccc45)(C2)C3)cc1=O [Example 62, 1-(((1-aminoisoquinolin-5-yl)amino)methyl)-N-(6-fluoro-4H-benzo[d][1,3]dioxin-8-yl)-4-(((1-methyl-2-oxo-1,2-dihydropyridin-4-yl)oxy)methyl)-2-azabicyclo [2.1.1]hexane-2-carboxamide]
Second: Cn1ccc(OCC23CN(C(=O)NC4(C)COC4)C(CNc4cccc5c(N)nccc45)(C2)C3)cc1=O [Example 79, 1-(((1-aminoisoquinolin-5-yl)amino)methyl)-4-(((1-methyl-2-oxo-1,2-dihydropyridin-4-yl)oxy)methyl)-N-(3-methyloxetan-3-yl)-2-azabicyclo[2.1.1]hexane-2-carboxamide]
The pIC50 of the first is higher: 8.00 to 9.00 for the first, 7.00 to 8.00 for the second. The first is the more potent here.

`Cn1ccc(OCC23CN(C(N)=O)C(CNc4cccc5c(N)nccc45)(C2)C3)cc1=O` [Example 63, 1-(((1-Aminoisoquinolin-5-yl)amino)methyl)-4-(((1-methyl-2-oxo-1,2-dihydropyridin-4-yl)oxy)methyl)-2-azabicyclo[2.1.1]hexane-2-carboxamide] and `Cn1ccc(OCC23CN(C(=O)NCC4(C)COC4)C(CNc4cccc5c(N)nccc45)(C2)C3)cc1=O` [Example 76, 1-(((1-aminoisoquinolin-5-yl)amino)methyl)-4-(((1-methyl-2-oxo-1,2-dihydropyridin-4-yl)oxy)methyl)-N-((3-methyloxetan-3-yl)methyl)-2-azabicyclo[2.1.1]hexane-2-carboxamide] fall in the same range of pIC50: 7.00 to 8.00 for the first, 7.00 to 8.00 for the second.

First: Cn1ccc(OCC23CN(C(=O)NC4(c5ccccc5)CCOCC4)C(CNc4cccc5c(N)nccc45)(C2)C3)cc1=O [Example 64, 1-(((1-aminoisoquinolin-5-yl)amino)methyl)-4-(((1-methyl-2-oxo-1,2-dihydropyridin-4-yl)oxy)methyl)-N-(4-phenyltetrahydro-2H-pyran-4-yl)-2-azabicyclo[2.1.1]hexane-2-carboxamide]
Second: Cn1ccc(OCC23CN(C(=O)NC4(c5ccccc5)COC4)C(CNc4cccc5c(N)nccc45)(C2)C3)cc1=O [Example 69, 1-(((1-aminoisoquinolin-5-yl)amino)methyl)-4-(((1-methyl-2-oxo-1,2-dihydropyridin-4-yl)oxy)methyl)-N-(3-phenyloxetan-3-yl)-2-azabicyclo [2.1.1]hexane-2-carboxamide]
The pIC50 of the first is lower: 7.00 to 8.00 for the first, 8.00 to 9.00 for the second.

First: Cc1cc(OCC23CN(C(=O)Nc4ccc5c(c4)CCC5)C(CNc4cccc5c(N)nccc45)(C2)C3)cc(=O)n1C [Example 65, 1-(((1-Aminoisoquinolin-5-yl)amino)methyl)-N-(2,3-dihydro-1H-inden-5-yl)-4-(((1,6-dimethyl-2-oxo-1,2-dihydropyridin-4-yl)oxy)methyl)-2-azabicyclo[2.1.1]hexane-2-carboxamide]
Second: Cc1cc(OCC23CN(C(=O)N4CCC(c5ccccc5)CC4)C(CNc4cccc5c(N)nccc45)(C2)C3)cc(=O)n1C [Example 70, 4-((1-(((1-aminoisoquinolin-5-yl)amino)methyl)-2-(4-phenylpiperidine-1-carbonyl)-2-azabicyclo[2.1.1]hexan-4-yl)methoxy)-1,6-dimethylpyridin-2(1H)-one]
The pIC50 of the first is higher: 8.00 to 9.00 for the first, 7.00 to 8.00 for the second. The first is the more potent here.

Compared with `Cn1ccc(OCC23CN(C(=O)NC(C)(C)c4ccccc4)C(CNc4cccc5c(N)nccc45)(C2)C3)cc1=O` [Example 66, 1-(((1-Aminoisoquinolin-5-yl)amino)methyl)-4-(((1-methyl-2-oxo-1,2-dihydropyridin-4-yl)oxy)methyl)-N-(2-phenylpropan-2-yl)-2-azabicyclo[2.1.1]hexane-2-carboxamide], `Cn1ccc(OCC23CN(C(=O)NC4(C)CCOCC4)C(CNc4cccc5c(N)nccc45)(C2)C3)cc1=O` [Example 78, 1-(((1-aminoisoquinolin-5-yl)amino)methyl)-4-(((1-methyl-2-oxo-1,2-dihydropyridin-4-yl)oxy)methyl)-N-(4-methyltetrahydro-2H-pyran-4-yl)-2-azabicyclo[2.1.1]hexane-2-carboxamide] is lower in pIC50: 8.00 to 9.00 for the first, 7.00 to 8.00 for the second.

`Cc1cc(OCC23CN(C(=O)N4CC(C5CCOCC5)C4)C(CNc4cccc5c(N)nccc45)(C2)C3)cc(=O)n1C` [Example 72, 4-((1-(((1-aminoisoquinolin-5-yl)amino)methyl)-2-(3-(tetrahydro-2H-pyran-4-yl)azetidine-1-carbonyl)-2-azabicyclo[2.1.1]hexan-4-yl)methoxy)-1,6-dimethylpyridin-2(1H)-one] and `Cn1ccc(OCC23CN(C(=O)NCC4CCOCC4)C(CNc4cccc5c(N)nccc45)(C2)C3)cc1=O` [Example 77, 1-(((1-aminoisoquinolin-5-yl)amino)methyl)-4-(((1-methyl-2-oxo-1,2-dihydropyridin-4-yl)oxy)methyl)-N-((tetrahydro-2H-pyran-4-yl)methyl)-2-azabicyclo[2.1.1]hexane-2-carboxamide] fall in the same range of pIC50: 7.00 to 8.00 for the first, 7.00 to 8.00 for the second.

`COCCOCCNC(=O)N1CC2(COc3ccn(C)c(=O)c3)CC1(CNc1cccc3c(N)nccc13)C2` [Example 73, 1-(((1-aminoisoquinolin-5-yl)amino)methyl)-N-(2-(2-methoxyethoxy)ethyl)-4-(((1-methyl-2-oxo-1,2-dihydropyridin-4-yl)oxy)methyl)-2-azabicyclo[2.1.1]hexane-2-carboxamide] and `Cn1ccc(OCC23CN(C(=O)NC4CCC(S(=O)(=O)C5CCCCC5)CC4)C(CNc4cccc5c(N)nccc45)(C2)C3)cc1=O` (stereo not shown) [Example 74, 1-(((1-aminoisoquinolin-5-yl)amino)methyl)-N-(4-(cyclohexylsulfonyl)cyclohexyl)-4-(((1-methyl-2-oxo-1,2-dihydropyridin-4-yl)oxy)methyl)-2-azabicyclo[2.1.1]hexane-2-carboxamide] fall in the same range of pIC50: 7.00 to 8.00 for the first, 7.00 to 8.00 for the second.
